Measured values reported in the NIST ThermoML archive (doi:10.1021/je050050p).
Numbers after ± are expanded uncertainties.

Test: xn = mol fraction of the nth substance listed
Conditions: Liquid, Vibrating tube method

## CN(C)C=O [dimethylformamide] + O=C=O
313.15 K, 15999 kPa, x2 = 0.2876
  mass density: 958.91 ± 0.41 kg/m3
313.15 K, 16006 kPa, x2 = 0.4461
  mass density: 967.34 ± 0.41 kg/m3
313.15 K, 16007 kPa, x2 = 0.4268
  mass density: 966.35 ± 0.41 kg/m3
313.15 K, 17000 kPa, x2 = 0.4268
  mass density: 967.35 ± 0.41 kg/m3
313.15 K, 17005 kPa, x2 = 0.2876
  mass density: 959.75 ± 0.41 kg/m3
313.15 K, 17007 kPa, x2 = 0.4461
  mass density: 968.38 ± 0.41 kg/m3
313.15 K, 17985 kPa, x2 = 0.4461
  mass density: 969.42 ± 0.41 kg/m3
313.15 K, 17994 kPa, x2 = 0.4268
  mass density: 968.36 ± 0.41 kg/m3
313.15 K, 18009 kPa, x2 = 0.2876
  mass density: 960.57 ± 0.41 kg/m3
313.15 K, 19015 kPa, x2 = 0.4461
  mass density: 970.46 ± 0.41 kg/m3
313.15 K, 19017 kPa, x2 = 0.4268
  mass density: 969.38 ± 0.41 kg/m3
313.15 K, 19021 kPa, x2 = 0.2876
  mass density: 961.39 ± 0.41 kg/m3
313.15 K, 19994 kPa, x2 = 0.4268
  mass density: 970.35 ± 0.41 kg/m3
313.15 K, 20001 kPa, x2 = 0.2876
  mass density: 962.21 ± 0.41 kg/m3
313.15 K, 20007 kPa, x2 = 0.4461
  mass density: 971.48 ± 0.41 kg/m3
313.15 K, 20983 kPa, x2 = 0.4268
  mass density: 971.33 ± 0.41 kg/m3
313.15 K, 20996 kPa, x2 = 0.4461
  mass density: 972.47 ± 0.41 kg/m3
313.15 K, 21004 kPa, x2 = 0.2876
  mass density: 963 ± 0.41 kg/m3
313.15 K, 22022 kPa, x2 = 0.2876
  mass density: 963.82 ± 0.41 kg/m3
313.15 K, 22022 kPa, x2 = 0.4461
  mass density: 973.5 ± 0.41 kg/m3
313.15 K, 22024 kPa, x2 = 0.4268
  mass density: 972.32 ± 0.41 kg/m3
313.15 K, 22993 kPa, x2 = 0.4461
  mass density: 974.47 ± 0.41 kg/m3
313.15 K, 23016 kPa, x2 = 0.2876
  mass density: 964.58 ± 0.41 kg/m3
313.15 K, 23020 kPa, x2 = 0.4268
  mass density: 973.26 ± 0.41 kg/m3
313.15 K, 23989 kPa, x2 = 0.2876
  mass density: 965.35 ± 0.41 kg/m3
313.15 K, 23996 kPa, x2 = 0.4461
  mass density: 975.45 ± 0.41 kg/m3
313.15 K, 24016 kPa, x2 = 0.4268
  mass density: 974.2 ± 0.41 kg/m3
313.15 K, 24992 kPa, x2 = 0.4461
  mass density: 976.41 ± 0.41 kg/m3
313.15 K, 24996 kPa, x2 = 0.4268
  mass density: 975.14 ± 0.41 kg/m3
313.15 K, 25004 kPa, x2 = 0.2876
  mass density: 966.15 ± 0.41 kg/m3
313.16 K, 5026 kPa, x2 = 0.4502
  mass density: 955.28 ± 0.41 kg/m3
313.16 K, 5988 kPa, x2 = 0.4502
  mass density: 956.32 ± 0.41 kg/m3
313.16 K, 6028 kPa, x2 = 0.4068
  mass density: 955.07 ± 0.41 kg/m3
313.16 K, 7004 kPa, x2 = 0.4502
  mass density: 957.42 ± 0.41 kg/m3
313.16 K, 7010 kPa, x2 = 0.4068
  mass density: 956.12 ± 0.41 kg/m3
313.16 K, 7999 kPa, x2 = 0.4502
  mass density: 958.57 ± 0.41 kg/m3
313.16 K, 8028 kPa, x2 = 0.4068
  mass density: 957.19 ± 0.41 kg/m3
313.16 K, 9005 kPa, x2 = 0.4068
  mass density: 958.24 ± 0.41 kg/m3
313.16 K, 9031 kPa, x2 = 0.4502
  mass density: 959.69 ± 0.41 kg/m3
313.16 K, 10012 kPa, x2 = 0.4502
  mass density: 960.79 ± 0.41 kg/m3
313.16 K, 10041 kPa, x2 = 0.4068
  mass density: 959.33 ± 0.41 kg/m3
313.16 K, 10994 kPa, x2 = 0.4068
  mass density: 960.3 ± 0.41 kg/m3
313.16 K, 11036 kPa, x2 = 0.4502
  mass density: 961.92 ± 0.41 kg/m3
313.16 K, 11990 kPa, x2 = 0.4068
  mass density: 961.32 ± 0.41 kg/m3
313.16 K, 12022 kPa, x2 = 0.4502
  mass density: 963.01 ± 0.41 kg/m3
313.16 K, 12989 kPa, x2 = 0.4068
  mass density: 962.33 ± 0.41 kg/m3
313.16 K, 13014 kPa, x2 = 0.4502
  mass density: 964.13 ± 0.41 kg/m3
313.16 K, 14015 kPa, x2 = 0.4502
  mass density: 965.19 ± 0.41 kg/m3
313.16 K, 14027 kPa, x2 = 0.4068
  mass density: 963.34 ± 0.41 kg/m3
313.16 K, 14992 kPa, x2 = 0.4068
  mass density: 964.31 ± 0.41 kg/m3
313.16 K, 15005 kPa, x2 = 0.4502
  mass density: 966.24 ± 0.41 kg/m3
313.16 K, 15994 kPa, x2 = 0.4068
  mass density: 965.3 ± 0.41 kg/m3
313.16 K, 16019 kPa, x2 = 0.4502
  mass density: 967.32 ± 0.41 kg/m3
313.16 K, 16994 kPa, x2 = 0.4068
  mass density: 966.27 ± 0.41 kg/m3
313.16 K, 17003 kPa, x2 = 0.4502
  mass density: 968.34 ± 0.41 kg/m3
313.16 K, 17999 kPa, x2 = 0.4502
  mass density: 969.4 ± 0.41 kg/m3
313.16 K, 18006 kPa, x2 = 0.4068
  mass density: 967.25 ± 0.41 kg/m3
313.16 K, 18978 kPa, x2 = 0.4068
  mass density: 968.19 ± 0.41 kg/m3
313.16 K, 19033 kPa, x2 = 0.4502
  mass density: 970.43 ± 0.41 kg/m3
313.16 K, 19978 kPa, x2 = 0.4502
  mass density: 971.41 ± 0.41 kg/m3
313.16 K, 20043 kPa, x2 = 0.4068
  mass density: 969.19 ± 0.41 kg/m3
313.16 K, 21007 kPa, x2 = 0.4502
  mass density: 972.47 ± 0.41 kg/m3
313.16 K, 21020 kPa, x2 = 0.4068
  mass density: 970.1 ± 0.41 kg/m3
313.16 K, 22002 kPa, x2 = 0.4068
  mass density: 970.98 ± 0.41 kg/m3
313.16 K, 22023 kPa, x2 = 0.4502
  mass density: 973.48 ± 0.41 kg/m3
313.16 K, 23040 kPa, x2 = 0.4502
  mass density: 974.49 ± 0.41 kg/m3
313.16 K, 23059 kPa, x2 = 0.4068
  mass density: 971.98 ± 0.41 kg/m3
313.16 K, 24007 kPa, x2 = 0.4502
  mass density: 975.45 ± 0.41 kg/m3
313.16 K, 24032 kPa, x2 = 0.4068
  mass density: 972.87 ± 0.41 kg/m3
313.16 K, 24995 kPa, x2 = 0.4502
  mass density: 976.42 ± 0.41 kg/m3
313.16 K, 25024 kPa, x2 = 0.4068
  mass density: 973.76 ± 0.41 kg/m3
323.07 K, 9001 kPa, x2 = 0.6235
  mass density: 928.72 ± 0.41 kg/m3
323.07 K, 10031 kPa, x2 = 0.6235
  mass density: 931.44 ± 0.41 kg/m3
323.07 K, 11013 kPa, x2 = 0.6235
  mass density: 933.93 ± 0.42 kg/m3
323.07 K, 12042 kPa, x2 = 0.6235
  mass density: 936.47 ± 0.42 kg/m3
323.07 K, 13033 kPa, x2 = 0.6235
  mass density: 938.86 ± 0.41 kg/m3
323.07 K, 13992 kPa, x2 = 0.6235
  mass density: 941.1 ± 0.41 kg/m3
323.07 K, 14972 kPa, x2 = 0.6235
  mass density: 943.31 ± 0.41 kg/m3
323.07 K, 15993 kPa, x2 = 0.6235
  mass density: 945.57 ± 0.41 kg/m3
323.07 K, 16998 kPa, x2 = 0.6235
  mass density: 947.71 ± 0.41 kg/m3
323.07 K, 18015 kPa, x2 = 0.6235
  mass density: 949.84 ± 0.41 kg/m3
323.07 K, 18988 kPa, x2 = 0.6235
  mass density: 951.84 ± 0.41 kg/m3
323.07 K, 20012 kPa, x2 = 0.6235
  mass density: 953.89 ± 0.41 kg/m3
